# Experimental data from patent US20190275012A9, “SUBSTITUTED THIAZOLO-PYRIDINE COMPOUNDS AS MALT1 INHIBITORS” (Lupin Limited, priority 2016, published 2019).
# Experiments:
# [1] = tested on: NF-kB transcriptional activity in HEK-293-NF-kB-Luc cell line overexpressing MALT1; assay: NF-kB reporter assay (luciferase, MALT1 stably overexpressed); assay type: cell-based; details: Homo sapiens, 24 h, HEK-293-NF-kB-Luc cells stably overexpressing MALT1, 24 h treatment, Bright Glo luminescence; read-out: NF-kB inhibition IC50
# In short: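 HEK-293-NF-κB-Luc cells stably overexpressing MALT1 were seeded overnight, then exposed to test compounds for 24 h. Bright Glo added 10 min at ambient temperature and luminescence read; % inhibition calculated against 0.1% DMSO controls.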
# [2] = biological target: T1, full length MALT1 enzyme (Homo sapiens, UniProt Q9UDY8); assay: MALT1 biochemical assay (fluorescence based, Ac-Leu-Arg-Ser-Arg-AMC cleavage); details: full length MALT1 protein, 2 h pre-incubation at RT, tetrapeptide substrate Ac-Leu-Arg-Ser-Arg-AMC, read-out: Malt 1 inhibition IC50
# T1 construct: a fluorescence based assay with full length MALT1 enzyme
# T1 sequence (Q9UDY8 1-824): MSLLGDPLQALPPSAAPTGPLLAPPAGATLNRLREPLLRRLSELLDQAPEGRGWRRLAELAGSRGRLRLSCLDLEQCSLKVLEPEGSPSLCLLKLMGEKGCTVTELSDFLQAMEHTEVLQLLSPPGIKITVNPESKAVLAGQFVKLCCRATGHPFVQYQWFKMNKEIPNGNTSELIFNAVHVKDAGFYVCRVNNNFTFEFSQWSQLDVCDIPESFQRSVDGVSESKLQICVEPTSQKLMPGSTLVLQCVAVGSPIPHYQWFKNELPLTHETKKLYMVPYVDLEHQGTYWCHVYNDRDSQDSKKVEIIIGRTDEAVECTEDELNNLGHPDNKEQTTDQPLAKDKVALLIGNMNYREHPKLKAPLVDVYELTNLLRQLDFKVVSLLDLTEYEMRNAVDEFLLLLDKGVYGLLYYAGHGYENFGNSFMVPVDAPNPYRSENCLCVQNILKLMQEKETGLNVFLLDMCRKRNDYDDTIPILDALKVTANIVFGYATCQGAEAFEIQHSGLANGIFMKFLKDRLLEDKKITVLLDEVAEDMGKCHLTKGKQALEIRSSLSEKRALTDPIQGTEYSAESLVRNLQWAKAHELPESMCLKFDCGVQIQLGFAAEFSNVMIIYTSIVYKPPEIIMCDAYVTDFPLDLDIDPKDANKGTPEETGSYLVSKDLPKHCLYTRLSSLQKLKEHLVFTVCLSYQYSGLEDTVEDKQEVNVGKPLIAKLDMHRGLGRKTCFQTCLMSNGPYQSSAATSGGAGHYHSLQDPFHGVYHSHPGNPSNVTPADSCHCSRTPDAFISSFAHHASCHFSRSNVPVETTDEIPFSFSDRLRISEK
# Procedure: The biochemical potency of the MALT1 inhibitors was tested by using a fluorescence based assay with full length MALT1 enzyme. The assay principle makes use of the preferential cleavage by MALT1 after the Arginine residue. Thus, the substrate used is a tetrapeptide (Ac-Leu-Arg-Ser-Arg-AMC; Catalogue # SMAMC013, SM Biochemicals) which is cleaved by active MALT1 releasing the AMC which is fluorescent. Upon addition of the MALT1 protease inhibitors, the proteolytic activity (and accordingly AMC fluorescence) is reduced in a dose dependent manner. The kinetic characterization of the enzymatic reaction was measured by determining the Michaelis constant, Km, of the reaction (approximately 130=A/I). The assay buffer consisted of 50 mM MES, 150 mM NaCl, 0.1% w/v CHAPS, 1 M Ammonium citrate and 10 mM DTT (pH=7). The assay was established for the 384-well plate format using black microtiter square well plates (Optiplate 384-F, Perkin Elmer). The test compounds were dissolved in 100% DMSO at a stock concentration of 10 mM. Serial dilutions were made first in 100% DMSO. The final concentration of DMSO was 0.5% by wt.
# For determining the extent of inhibition of MALT1 protease activity by MALT1 inhibitors, 10⇒| of the test compound solutions were pre-incubated with 10⇒| of MALT1 full length protein (100-300 ng protein/well) for 2 h at RT. This was followed by 10⇒| of substrate addition at a final concentration of 100⇒M for an additional 4-12 h. The increase in assay signal was linear over this period of time and proportional with increase in the enzyme content. The final concentrations of the test compounds typically ranged from 10000 nM to 0.03 nM in an alternate 3.16 and 3 serial dilutions. The positive control for the reaction contained enzyme and DMSO (without any test compound) and was considered to have 100% enzyme activity (0% inhibition) and the negative control containing only buffer and DMSO (without any enzyme) was considered to have no enzymatic activity (100% inhibition). The fluorescence was recorded in a Spectra Max plate reader, Molecular Devices, with a fluorescence excitation at 360 nm and emission recording at 460 nm. The fluorescence units were transformed to percentage inhibitions by using the positive and negative controls as references as per the following formula.
# [formula] Positive control=Reaction containing enzyme+substrate+DMSO
# Negative control=Reaction containing substrate+DMSO but no enzyme
# The IC50 values of individual compounds were calculated with Non Linear Regression Analysis using Graph Pad Prism (Graph Pad software, Inc, USA).
SMILES,IC50 [2] [nM],IC50 [1] [nM]
"Cc1nc2c(C3CC3)c(NC(=O)Nc3cc(C(F)(F)F)cn(C)c3=O)cnc2s1 [Compound 5, 1-(7-Cyclopropyl-2-methylthiazolo[5,4-b]pyridin-6-yl)-3-(1-methyl-2-oxo-5-(trifluoromethyl)-1,2-dihydropyridin-3-yl)urea]",101 to 500,101 to 500
"Cc1nc2c(C3CC3)c(NC(=O)Nc3cncc(C(F)(F)F)c3)cnc2s1 [Compound 7, 1-(7-Cyclopropyl-2-methylthiazolo[5,4-b]pyridin-6-yl)-3-(5-(trifluoromethyl)pyridin-3-yl)urea]",101 to 500,101 to 500
"Cc1nc2c(C3CC3)c(NC(=O)Nc3cnc(N4CCCS4(=O)=O)c(C(F)(F)F)c3)cnc2s1 [Compound 23, 1-(7-Cyclopropyl-2-methylthiazolo[5,4-b]pyridin-6-yl)-3-(6-(1,1-dioxidoisothiazolidin-2-yl)-5-(trifluoromethyl)pyridin-3-yl)urea]",51 to 100,101 to 500
"COC1CCN(c2c(NC(=O)Nc3cnc(-n4nccn4)c(Cl)c3)cnc3sc(C)nc23)CC1 [Compound 29, 1-(5-Chloro-6-(2H-1,2,3-triazol-2-yl)pyridin-3-yl)-3-(7-(4-methoxypiperidin-1-yl)-2-methylthiazolo[5,4-b]pyridin-6-yl)urea]",51 to 100,101 to 500
"Cc1nc2c(N3CCC(C)CC3)c(NC(=O)Nc3cnc(-n4nccn4)c(Cl)c3)cnc2s1 [Compound 37, 1-(5-Chloro-6-(2H-1,2,3-triazol-2-yl)pyridin-3-yl)-3-(2-methyl-7-(4-methylpiperidin-1-yl)thiazolo[5,4-b]pyridin-6-yl)urea]",51 to 100,101 to 500
"Cc1nc2c(N3CCCCC3)c(NC(=O)Nc3cnc(-n4nccn4)c(Cl)c3)cnc2s1 [Compound 40, 1-(5-Chloro-6-(2H-1,2,3-triazol-2-yl)pyridin-3-yl)-3-(2-methyl-7-(piperidin-1-yl)thiazolo[5,4-b]pyridin-6-yl)urea]",1 to 50,1 to 100
"Cc1nc2c(C3CC3)c(NC(=O)Nc3cnc(OCCC4CCN(C)CC4)c(Cl)c3)cnc2s1 [Compound 73, 1-(5-Chloro-6-(2-(1-methylpiperidin-4-yl)ethoxy)pyridin-3-yl)-3-(7-cyclopropyl-2-methylthiazolo[5,4-b]pyridin-6-yl)urea]",51 to 100,101 to 500
"COC(C)(C)c1c(NC(=O)Nc2ccc(-n3nccn3)c(Cl)c2)cnc2sc(C)nc12 [Compound 98, 1-(3-Chloro-4-(2H-1,2,3-triazol-2-yl)phenyl)-3-(7-(2-methoxypropan-2-yl)-2-methylthiazolo[5,4-b]pyridin-6-yl)urea]",1 to 50,1 to 100
"COCC1(c2c(NC(=O)Nc3cnc(-n4nccn4)c(C(F)(F)F)c3)cnc3sc(C)nc23)CC1 [Compound 102, 1-(6-(2H-1,2,3-Triazol-2-yl)-5-(trifluoromethyl)pyridin-3-yl)-3-(7-(1-(methoxymethyl)cyclopropyl)-2-methylthiazolo[5,4-b]pyridin-6-yl)urea]",1 to 50,1 to 100
"COc1ncc(NC(=O)Nc2cnc3sc(C)nc3c2N(C)C)cc1Cl [Compound 110, 1-(5-Chloro-6-methoxypyridin-3-yl)-3-(7-(dimethylamino)-2-methylthiazolo[5,4-b]pyridin-6-yl)urea]",51 to 100,501 to 1500
"Cc1nc2c(C3CC3)c(NC(=O)Nc3ccc(-n4ccnn4)c(Cl)c3)cnc2s1 [Compound 169, 1-(3-Chloro-4-(1H-1,2,3-triazol-1-yl)phenyl)-3-(7-cyclopropyl-2-methylthiazolo[5,4-b]pyridin-6-yl)urea]",1 to 50,101 to 500
"Cc1nc2c(C3CC3)c(NC(=O)Nc3cc(Cl)c(-n4ccnn4)c(Cl)c3)cnc2s1 [Compound 170, 1-(7-Cyclopropyl-2-methylthiazolo[5,4-b]pyridin-6-yl)-3-(3,5-dichloro-4-(1H-1,2,3-triazol-1-yl)phenyl)urea]",1 to 50,101 to 500

# Now from value to compound, other results behind:
IC50 [2] [nM],SMILES,IC50 [1] [nM]
1 to 50,"COC(C)c1c(NC(=O)Nc2cnc(-n3cccn3)c(C(F)(F)F)c2)cnc2sc(C)nc12 (single isomer, unassigned) [Compound 213b, (S) or (R)-1-(6-(1H-Pyrazol-1-yl)-5-(trifluoromethyl)pyridin-3-yl)-3-(7-(1-methoxyethyl)-2-methylthiazolo[5,4-b]pyridin-6-yl)urea]",1 to 100
1 to 50,"CCc1nc2c(C(C)OC)c(NC(=O)Nc3ccc(-n4nccn4)c(Cl)c3)cnc2s1 (single isomer, unassigned) [Compound 233b, 1-(3-Chloro-4-(2H-1,2,3-triazol-2-yl)phenyl)-3-(2-ethyl-7-(1-methoxyethyl)thiazolo[5,4-b]pyridin-6-yl)urea]",101 to 500
1 to 50,"COC(C)c1c(NC(=O)Nc2cnc(-n3cnnn3)c(C(F)(F)F)c2)cnc2sc(C)nc12 (single isomer, unassigned) [Compound 239, (S or R)-1-(6-(1H-Tetrazol-1-yl)-5-(trifluoromethyl)pyridin-3-yl)-3-(7-(1-methoxyethyl)-2-methylthiazolo[5,4-b]pyridin-6-yl)urea]",1 to 100
1 to 50,"COC(CC1CC1)c1c(NC(=O)Nc2cnc(-n3nccn3)c(C(F)(F)F)c2)cnc2sc(C)nc12 (single isomer, unassigned) [Compound 240b, 1-(6-(2H-1,2,3-Triazol-2-yl)-5-(trifluoromethyl)pyridin-3-yl)-3-(7-(2-cyclopropyl-1-methoxyethyl)-2-methylthiazolo[5,4-b]pyridin-6-yl)urea]",1 to 100
1 to 50,"CCOc1ncc(NC(=O)Nc2cnc3sc(C)nc3c2C2CC2)cc1Cl [Compound 4, 1-(5-Chloro-6-ethoxypyridin-3-yl)-3-(7-cyclopropyl-2-methylthiazolo[5,4-b]pyridin-6-yl)urea]",501 to 1500
1 to 50,"COc1cc(F)ccc1-c1c(NC(=O)Nc2cnc(OC)c(Cl)c2)cnc2sc(C)nc12 [Compound 15, 1-(5-Chloro-6-methoxypyridin-3-yl)-3-(7-(4-fluoro-2-methoxyphenyl)-2-methylthiazolo[5,4-b]pyridin-6-yl)urea]",501 to 1500
1 to 50,"CCc1c(NC(=O)Nc2ccc(OC)c(Cl)c2)cnc2sc(C)nc12 [Compound 25, 1-(3-Chloro-4-methoxyphenyl)-3-(7-ethyl-2-methylthiazolo[5,4-b]pyridin-6-yl)urea]",501 to 1500
1 to 50,"CCc1nc2c(C3CC3)c(NC(=O)Nc3cnc(-n4nccn4)c(Cl)c3)cnc2s1 [Compound 31, 1-(5-Chloro-6-(2H-1,2,3-triazol-2-yl)pyridin-3-yl)-3-(7-cyclopropyl-2-ethylthiazolo[5,4-b]pyridin-6-yl)urea]",101 to 500
